Test results: patent US20070219203A1, “Arylalkylamino-substituted quinazoline analogues” (Neurogen Corporation, priority 2004, published 2007)

Biological target: T1, human capsaicin receptor (Homo sapiens, UniProt Q8NER1)
T1 construct: expressed in transfected cells
Test: Calcium mobilization assay, antagonist activity (Example 6)
Format: cell-based
Conditions: Table I; 50% decrease in fluorescence response of cells expressing human capsaicin receptor exposed to capsaicin
Procedure: A cDNA encoding full length human capsaicin receptor (SEQ ID NO:1, 2 or 3 of U.S. Pat. No. 6,482,611) is subcloned in the plasmid pBK-CMV (Stratagene, La Jolla, Calif.) for recombinant expression in mammalian cells.
Human embryonic kidney (HEK293) cells are transfected with the pBK-CMV expression construct encoding the full length human capsaicin receptor using standard methods. The transfected cells are selected for two weeks in media containing G418 (400 μg/ml) to obtain a pool of stably transfected cells. Independent clones are isolated from this pool by limiting dilution to obtain clonal stable cell lines for use in subsequent experiments.
Cells transfected with expression plasmids (as described in Example 4) and thereby expressing human capsaicin receptor are seeded and grown to 70-90% confluency in FALCON black-walled, clear-bottomed 96-well plates (#3904, BECTON-DICKINSON, Franklin Lakes, N.J.). The culture medium is emptied from the 96 well plates and […] calcium sensitive dye (Molecular Probes, Eugene, Oreg.) is added to each well (dye solution: 1 mg […], 440 μL DMSO and 440 μl 20% pluronic acid in DMSO, diluted 1:250 in Krebs-Ringer HEPES (KRH) buffer (25 mM HEPES, 5 mM KCl, 0.96 mM NaH2PO4, 1 mM MgSO4, 2 mM CaCl2, 5 mM glucose, 1 mM probenecid, pH 7.4), 50 μl diluted solution per well). Plates are covered with aluminum foil and incubated at 37° C. for 1-2 hours in an environment containing 5% CO2. After the incubation, the dye is emptied from the plates, and the cells are washed once with KRH buffer, and resuspended in KRH buffer.
To measure the ability of a test compound to agonize or antagonize a calcium mobilization response in cells expressing capsaicin receptors to capsaicin or other vanilloid agonist, the EC50 of the agonist capsaicin is first determined. An additional 20 μl of KRH buffer and 1 μl DMSO is added to each well of cells, prepared as described above. 100 μl capsaicin in KRH buffer is automatically transferred by the FLIPR instrument to each well. Capsaicin-induced calcium mobilization is monitored using either FLUOROSKAN ASCENT (Labsystems; Franklin, Mass.) or FLIPR (fluorometric imaging plate reader system; Molecular Devices, Sunnyvale, Calif.) instruments. Data obtained between 30 and 60 seconds after agonist application are used to generate an 8-point concentration response curve, with final capsaicin concentrations of 1 nM to 3 μM. KALEIDAGRAPH software (Synergy Software, Reading, Pa.) is used to fit the data to the equation: y=a*(1/(1+(b/x)^c)) to determine the 50% excitatory concentration (EC50) for the response. In this equation, y is the maximum fluorescence signal, x is the concentration of the agonist or antagonist (in this case, capsaicin), a is the Emax, b corresponds to the EC50 value and c is the Hill coefficient. Determination of Agonist Activity
Test compounds are dissolved in DMSO, diluted in 20 μl KRH buffer so that the final concentration of test compounds in the assay well is between 1 μM and 5 μM, and added to cells prepared as described above. The 96 well plates containing prepared cells and test compounds are incubated in the dark, at room temperature for 0.5 to 6 hours. It is important that the incubation not continue beyond 6 hours. Just prior to determining the fluorescence response, 100 μl capsaicin in KRH buffer at twice the EC50 concentration determined as described above is automatically added by the FLIPR instrument to each well of the 96 well plate for a final sample volume of 200 μl and a final capsaicin concentration equal to the EC50. The final concentration of test compounds in the assay wells is between 1 μM and 5 μM. […] The concentration of antagonist required to provide a 50% decrease, relative to the response observed in the presence of capsaicin and without antagonist, is the IC50 for the antagonist, and is preferably below 1 micromolar, 100 nanomolar, 10 nanomolar or 1 nanomolar.

T1 sequence (Q8NER1 whole entry): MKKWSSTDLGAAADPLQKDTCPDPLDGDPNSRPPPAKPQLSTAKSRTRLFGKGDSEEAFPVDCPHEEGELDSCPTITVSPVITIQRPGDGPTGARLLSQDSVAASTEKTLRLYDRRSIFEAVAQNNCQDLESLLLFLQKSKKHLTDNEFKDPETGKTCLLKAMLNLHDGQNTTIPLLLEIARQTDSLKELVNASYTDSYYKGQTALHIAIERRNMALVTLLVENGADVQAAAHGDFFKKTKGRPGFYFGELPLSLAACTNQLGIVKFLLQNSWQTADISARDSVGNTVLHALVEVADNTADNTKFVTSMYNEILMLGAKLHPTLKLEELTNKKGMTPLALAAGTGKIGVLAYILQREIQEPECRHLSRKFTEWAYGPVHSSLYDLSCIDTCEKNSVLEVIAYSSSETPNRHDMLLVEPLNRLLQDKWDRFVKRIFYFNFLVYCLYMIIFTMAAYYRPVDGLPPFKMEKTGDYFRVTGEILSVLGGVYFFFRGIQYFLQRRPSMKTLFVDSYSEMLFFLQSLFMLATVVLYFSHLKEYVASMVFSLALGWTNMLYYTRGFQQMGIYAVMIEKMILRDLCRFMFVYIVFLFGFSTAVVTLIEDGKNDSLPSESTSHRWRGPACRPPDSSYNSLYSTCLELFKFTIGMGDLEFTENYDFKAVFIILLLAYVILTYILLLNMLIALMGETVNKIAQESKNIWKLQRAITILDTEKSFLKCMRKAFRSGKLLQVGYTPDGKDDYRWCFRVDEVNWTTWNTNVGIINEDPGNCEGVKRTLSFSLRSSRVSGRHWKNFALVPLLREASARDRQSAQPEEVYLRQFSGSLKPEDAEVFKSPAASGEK

SMILES | IC50 [µM]
Fc1ccccc1CCNc1ncnc2cc(-c3ncccc3C(F)(F)F)ccc12 [Compound 6, N-[2-(2-fluorophenyl)ethyl]-7-[3-(trifluoromethyl)pyridin-2-yl]quinazolin-4-amine] | ≤ 1
Fc1ccc(CCNc2ncnc3cc(-c4ncccc4C(F)(F)F)ccc23)cc1 [Compound 8, N-[2-(4-fluorophenyl)ethyl]-7-[3-(trifluoromethyl)pyridin-2-yl]quinazolin-4-amine] | ≤ 1
COc1ccccc1CCNc1ncnc2cc(-c3ncccc3C(F)(F)F)ccc12 [Compound 9, N-[2-(2-methoxyphenyl)ethYl]-7-{3-(trifluoromethyl)pyridin-2-yl]quinazolin-4-amine] | ≤ 1
COc1cccc(CCNc2ncnc3cc(-c4ncccc4C(F)(F)F)ccc23)c1 [Compound 10, N-[2-(3-methoxyphenyl)ethyl]7-[3-(trifluoromethyl)pyridin-2-yl]quinazolin-4-amine] | ≤ 1
COc1ccc(CCNc2ncnc3cc(-c4ncccc4C(F)(F)F)ccc23)cc1 [Compound 11, N-[2-(4-methoxyphenyl)ethyl]-7-[3-(trifluoromethyl)pyridin-2-yl]quinazolin-4-amine] | ≤ 1
FC(F)(F)c1cccnc1-c1ccc2c(NCCc3ccccc3Cl)ncnc2c1 [Compound 12, N-[2-(2-chlorophenyl)ethyl]-7-[3-(trifluoromethyl)pyridin-2-yl]quinazolin-4-amine] | ≤ 1
FC(F)(F)c1ccccc1CCNc1ncnc2cc(-c3ncccc3C(F)(F)F)ccc12 [Compound 15, N-{2-[2-(trifluoromethyl)phenyl]ethyl}-7-[3-(trifluoromethyl)pyridin-2-yl]quinazolin-4-amine] | ≤ 1
FC(F)(F)c1cccc(CCNc2ncnc3cc(-c4ncccc4C(F)(F)F)ccc23)c1 [Compound 16, N-{2-[3-(trifluoromethyl)phenyl]ethyl}-7-[3-(trifluoromethyl)pyridin-2-yl]quinazolin-4-amine] | ≤ 1
FC(F)(F)c1ccc(CCNc2ncnc3cc(-c4ncccc4C(F)(F)F)ccc23)cc1 [Compound 17, N-{2-[4-(trifluoromethyl)phenyl]ethyl}-7-[3-(trifluoromethyl)pyridin-2-yl]quinazolin-4-amine] | ≤ 1
CC(CNc1ncnc2cc(-c3ncccc3C(F)(F)F)ccc12)c1ccccc1 (centres unmarked) [Compound 18, N-(2-phenylpropyl)-7-[3-(trifluoromethyl)pyridin-2-yl]quinazolin-4-amine] | ≤ 1
C[C@@H](CNc1ncnc2cc(-c3ncccc3C(F)(F)F)ccc12)c1ccccc1 [Compound 23, N-[(2R)~2-phenylpropyll]-7-[3-(trifluoromethyl)pyridin-2-yl]quinazolin-4-amine] | ≤ 1
C[C@@H]1CN(Cc2nc(NCCc3ccccc3Cl)c3ccc(-c4ncccc4C(F)(F)F)cc3n2)C[C@H](C)O1 [Compound 24, N-[2-(2-chlorophenyl)ethyl]-2-{[(2R,6S)-2,6-dimethylmorpholin-4-yl]methyl}-7-[3-(trifluoromethyl)pyridin-2-yl]quinazolin-4-amine] | ≤ 1
C[C@H](CNc1ncnc2cc(-c3ncccc3C(F)(F)F)ccc12)c1ccccc1 [Compound 25, N-[(2S)-2-phenylpropyl]-7-[3 (trifluoromethyl)pyridin-2-yl]quinazolin-4-amine] | ≤ 1
Fc1cccc(F)c1CCNc1ncnc2cc(-c3ncccc3C(F)(F)F)ccc12 [Compound 26, N-[2-(2,6-difluorophenyl)ethYl]-7-[3-(trifluoromethyl)pyridin-2-yl]quinazolin-4-amine] | ≤ 1
Fc1ccc(CCNc2ncnc3cc(-c4ncccc4C(F)(F)F)ccc23)cc1F [Compound 27, N-[2-(3,4-difluorophenyl)ethyl]-7-[3-(trifluoromethyl)pyridin-2-yl]quinazolin-4-amine] | ≤ 1

Other lines, results leading:

IC50 [µM] | SMILES
≤ 1 | FC(F)(F)c1ccccc1-c1ccc2c(NCCc3ccccc3)ncnc2c1 [Compound 1, N-(2-phenylethyl)-7-{2-(trifluoromethyl)phenyl]quinazolin-4-amine]
≤ 1 | Fc1cccc(CCNc2ncnc3cc(-c4ncccc4C(F)(F)F)ccc23)c1 [Compound 7, N-[2-(3-fluorophenyl)ethyl]-7-[3-(trifluoromethyl)pyridin-2-yl]quinazolin-4-amine]
≤ 1 | FC(F)(F)c1cccnc1-c1ccc2c(NCCc3cccc(Cl)c3)ncnc2c1 [Compound 13, N-[2-(3-chlorophenyl)ethyl]-7-{3-(trifluoromethyl)pyridin-2-yl]quinazolin-4-amine]
≤ 1 | FC(F)(F)c1cccnc1-c1ccc2c(NCCc3ccc(Cl)cc3)ncnc2c1 [Compound 14, N-[2-(4-chlorophenyl)ethyl]-7-[3-(trifluoromethyl)pyridin-2-yl]quinazolin-4-amine]
≤ 1 | FC(F)(F)c1cccnc1-c1ccc2c(NCCc3c(Cl)cccc3Cl)ncnc2c1 [Compound 19, N-[2-(2,6-dichlorophenyl)ethyl]-7-[3-(trifluoromethyl)pyridin-2-yl]quinazolin-4-amine]
≤ 1 | FC(F)(F)c1cccnc1-c1ccc2c(NCCc3ccc(Cl)c(Cl)c3)ncnc2c1 [Compound 20, N-[2-(3,4-dichlorophenyl)ethyl]-7-[3-(trifluoromethyl)pyridin-2-yl]quinazolin-4-anmne]
≤ 1 | CC(Cc1ccc(Cl)cc1)Nc1ncnc2cc(-c3ncccc3C(F)(F)F)ccc12 (centres unmarked) [Compound 21, N-[2-(4-chlorophenyl)-1-methylethyl]-7-[3-(trifluoromethyl)pyridin-2-yl]quinazolin-4-amine]
≤ 1 | FC(F)(F)c1cccnc1-c1ccc2c(NCCc3ccccc3)ncnc2c1 [Compound 22, N-(2-phenylethyl)-7-[3-(trifluoromethyl)pyridin-2-yl]quinazolin-4-amine]
≤ 1 | Fc1cc(F)cc(CCNc2ncnc3cc(-c4ncccc4C(F)(F)F)ccc23)c1 [Compound 28, N-[2-(3,5-difluorophenyl)ethyl]-7-[3-(trifluoromethyl)pyridin-2-yl]quinazolin-4-amine]
≤ 1 | C[C@@H]1CN(Cc2nc(NCCc3ccccc3Cl)c3ncc(-c4ncccc4Cl)cc3n2)C[C@H](C)O1 [Compound 29, N-[2-(2-chlorophenyl)ethyl]-7-(3-chloropyridin-2-yl)-2-{[(2R,6S)-2,6-dimethylmorpholin-4-yl]methyl}pyrido[3,2-d]pyrimidin-4-amine]
≤ 1 | Cc1nc(NCCc2ccccc2Cl)c2ncc(-c3ncccc3Cl)cc2n1 [Compound 30, N-[2-(2-chlorophenyl)ethyl]-7-(3-chloropyridin-2-yl)-2-methylpyrido[3,2-d]pyrimidin-4-amine]
≤ 1 | FC(F)(F)c1cccnc1-c1ccc2c(N[C@@H]3C[C@H]3c3ccccc3)ncnc2c1 [Compound 31, N-[(1R,2S)-2-phenylcyclopropyl]-7-[3-(trifluoromethyl)pyridin-2-yl]quinazolin-4-amine]
≤ 1 | Cc1nc(NCCc2ccccc2Cl)c2ccc(-c3ncccc3C)nc2n1 [Compound 32, N-[2-(2-chlorophenyl)ethyl]-2-methyl-7-(3-methylpyridin-2-yl)pyrido[2,3-d]pyrimidin-4-amine]

Same assay, conditions: Table II; 50% decrease in fluorescence response of cells expressing human capsaicin receptor exposed to capsaicin

IC50 [µM] | SMILES
≤ 1 | C[C@@H]1CN(Cc2nc(NCCc3ccccc3Cl)c3ccc(-c4ncccc4Cl)cc3n2)C[C@@H](C)O1 (stereo in doubt) [Compound 166, [2-(2-Chloro-phenyl)-ethyl]-[7-(3-chloro-pyridin-2-yl)-2-(2,6-dimethyl-morpholin-4-ylmethyl)-quinazolin-4-yl]-amine]
